In brackets after ≈: the same amount, converted by molar mass.
How the values were obtained:
[1] = aqueous solutions; cited from earlier work
[2] = test system: oxidative stress-induced ototoxicity and nephrotoxicity; details: in vivo; cited from earlier work
in vivo = details: for AUC(0-inf): AUC(0-inf) of D-Methionine; for concentration at 0 h: 0.00 h (predose); for concentration at 0.5 h: 0.50 h; for Cmax: Cmax of D-Methionine
Method: (§1) Twenty-six male Sprague-Dawley rats weighing approximately 200 to 300 g were used for the study. The jugular vein of six animals were cannulated and the rest of the animals were used without any further preparation.
(§2) Dosing was conducted on two occasions. […] The drug was prepared in a suspension formulation in accordance with the present invention. The blood samples (approximately 0.5 mL/sample) were collected from each animal at predose, 15, 30 minutes, 1, 2, 4 and 6 hours postdose into microtainer tubes containing lithium heparin as an anticoagulant. Replacement blood was infused into each animal following each blood draw. […] The drug was prepared in a solution formulation. […] Blood samples were collected from each animal via the orbital sinus at predose, 2, 15, 30 minutes, 1, 2, 4 and 6 hours postdose. Each animal was bled twice. The blood was centrifuged immediately and the resulting plasma in tubes was flash frozen in liquid nitrogen and stored at approximately −70° C. until analysis.
L-Methinione can also be detected under the same HPLC conditions.
Descriptive pharmacokinetic parameters were determined by standard model independent methods (Gibaldi, M. and Perrier, D. Pharmacokinetics, Second Edition, Marcel Dekker, Inc., New York, 1982) based on the mean plasma concentration-time data. The plasma concentrations were rounded to one decimal place before the calculation. Plasma samples with concentrations below the quantifiable limit (BQL) were assigned values of zero for the calculation of mean plasma concentration.

[3] = D-methionine IV 150 mg/kg, PO 150 or 300 mg/kg
Method: as §1, §2

[4] = test system: cisplatin induced hair cell loss; details: rat model; cited from earlier work
[5] = humans, cited from earlier work
[6] = male, Sprague-Dawley, rat, plasma, iv, 150 mg/kg, Mean Plasma Concentrations of D-Methionine, IV 150 mg/kg, solution
[7] = male, Sprague-Dawley, rat, plasma, po, 150 mg/kg, PO 150 mg/kg, solution
[8] = male, Sprague-Dawley, rat, plasma, po, 150 mg/kg, PO 150 mg/kg, suspension
[9] = male, Sprague-Dawley, rat, plasma, po, 150 mg/kg, Mean Plasma Concentrations of D-Methionine, PO 150 mg/kg, solution
[10] = male, Sprague-Dawley, rat, plasma, po, 150 mg/kg, Mean Plasma Concentrations of D-Methionine, PO 150 mg/kg, suspension
[11] = male, Sprague-Dawley, rat, plasma, po, 300 mg/kg, PO 300 mg/kg, suspension
[12] = male, Sprague-Dawley, rat, plasma, po, 300 mg/kg, Mean Plasma Concentrations of D-Methionine, PO 300 mg/kg, suspension

CSCC[C@@H](N)C(=O)O [D-Methionine, D-methionine]
solubility [1]: 50 mg/mL (≈ 335 mM) | effect on oxidative stress-induced ototoxicity and nephrotoxicity associated with cisplatin [2]: effectively prevent | time point at which Cmax was observed (in vivo; PO 150 mg/kg, solution, first collection time point): 30 min | first-pass metabolism suggested by systemic clearance (in vivo; from CL after IV 150 mg/kg): will not be subjected to extensive first-pass metabolism | clearance (in vivo; male, Sprague-Dawley, rat, plasma, iv, 150 mg/kg): 9.28 mL/min/kg | AUC(0-inf) (in vivo; male, Sprague-Dawley, rat, plasma, iv, 150 mg/kg, IV 150 mg/kg, solution): 269 µg·h/mL | concentration at 0 h (in vivo; [6]): 0 ng/mL | concentration at 0.03 h (in vivo; male, Sprague-Dawley, rat, plasma, iv, 150 mg/kg, Mean Plasma Concentrations of D-Methionine, IV 150 mg/kg, solution, 0.03 h): 471 ng/mL | concentration at 0.25 h (in vivo; [6]): 220 ng/mL | concentration at 0.5 h (in vivo; [6]): 106 ng/mL | concentration at 1 h (in vivo; [6]): 64 ng/mL | concentration at 2 h (in vivo; [6]): 32.2 ng/mL | concentration at 4 h (in vivo; [6]): 6.13 ng/mL | concentration at 6 h (in vivo; [6]): 1.45 ng/mL | half-life (in vivo; male, Sprague-Dawley, rat, plasma, iv, 150 mg/kg, T1/2 (terminal half-life) of D-Methionine, IV 150 mg/kg, solution): 54 min | bioavailability (in vivo; male, Sprague-Dawley, rat, plasma, oral, 150 mg/kg): 61.3% | Tmax (in vivo; male, Sprague-Dawley, rat, plasma, po, 150 mg/kg): 30 min | AUC(0-inf) (in vivo; [7]): 165 µg·h/mL | AUC(0-inf) (in vivo; [8]): 120 µg·h/mL | Cmax (in vivo; [7]): 77.1 µg/mL | Cmax (in vivo; [8]): 71.1 µg/mL | concentration at 0 h (in vivo; [9]): 0 ng/mL | concentration at 0.5 h (in vivo; [9]): 77.1 ng/mL | concentration at 1 h (in vivo; [9]): 54.1 ng/mL | concentration at 2 h (in vivo; [9]): 41.7 ng/mL | concentration at 4 h (in vivo; [9]): 7.67 ng/mL | concentration at 6 h (in vivo; [9]): 3.4 ng/mL | concentration at 12 h (in vivo; male, Sprague-Dawley, rat, plasma, po, 150 mg/kg, Mean Plasma Concentrations of D-Methionine, PO 150 mg/kg, solution, 12.00 h): 0 ng/mL | concentration at 0 h (in vivo; [10]): 0 ng/mL | concentration at 0.25 h (in vivo; [10]): 69.5 ng/mL | concentration at 0.5 h (in vivo; [10]): 71.1 ng/mL | concentration at 1 h (in vivo; [10]): 44.1 ng/mL | concentration at 2 h (in vivo; [10]): 20.9 ng/mL | concentration at 4 h (in vivo; [10]): 4 ng/mL | concentration at 6 h (in vivo; [10]): 1.7 ng/mL | half-life (in vivo; male, Sprague-Dawley, rat, plasma, po, 150 mg/kg, T1/2 (terminal half-life) of D-Methionine, PO 150 mg/kg, solution): 66 min | half-life (in vivo; male, Sprague-Dawley, rat, plasma, po, 150 mg/kg, T1/2 of D-Methionine, PO 150 mg/kg, suspension): 60 min | Tmax (in vivo; male, Sprague-Dawley, rat, plasma, po, 300 mg/kg): 30 min | AUC(0-inf) (in vivo; [11]): 359 µg·h/mL | Cmax (in vivo; [11]): 175 µg/mL | concentration at 0 h (in vivo; [12]): 0 ng/mL | concentration at 0.25 h (in vivo; [12]): 120 ng/mL | concentration at 0.5 h (in vivo; [12]): 175 ng/mL | concentration at 1 h (in vivo; [12]): 128 ng/mL | concentration at 2 h (in vivo; [12]): 71.4 ng/mL | concentration at 4 h (in vivo; [12]): 22.7 ng/mL | concentration at 6 h (in vivo; [12]): 5.5 ng/mL | half-life (in vivo; male, Sprague-Dawley, rat, plasma, po, 300 mg/kg, T1/2 of D-Methionine, PO 300 mg/kg, suspension): 66 min | terminal half-life (conclusion) (in vivo; rats, IV and PO): approximately one hour | mortality [3]: no mortality occurred | effect on cisplatin damage to the stria vascularis [4]: markedly reduce cisplatin damage to the stria vascularis | effect on cisplatin induced hair cell loss [4]: prevent cisplatin induced hair cell loss | plasma levels compared with L-methionine [5]: higher plasma levels than L-methionine | fraction excreted without conversion to the L-isomer ([5]; except in L-methionine deprivation): 60-70%
